How the values were obtained:
[1] = 10 mg/ml in drinking water for 14 days
Experimental: (§1) A pressure sensor chip for a telemetric device (Data Scientific International, Saint Paul, Minn.) was implanted in the dorsal abdominal aorta of male Wistar rat (250-280 g). The rats were allowed to recover from the surgery over a period of 24 hours. The implanted rats were separated into two groups (n=3); One received 10 mg/ml of L-proline dithiocarbamate (L-PD) in drinking water and the other received only distilled water for 14 days. […] On average, in the experimental group, each rat received about 800 mg/kg/day for 14 days.

[2] = tested on: rats having physiological levels of nitric oxide; conditions: rat, in vivo
Experimental: as §1

amounts of water consumption, experimental vs control group [1]: no significant difference
weight gain, experimental vs control group [1]: no significant difference
SMILES: NC(=S)S.O=C(O)[C@@H]1CCCN1 [L-PD, L-proline dithiocarbamate]
effect on blood pressure [2]: no effect
effect on heart rate [2]: no effect

Source: patent US6596733B2, “Use of nitric oxide scavengers to treat side effects caused by therapeutic administration of sources of nitric oxide” (Medinox, Inc., priority 1998, dated 2003)
